Test systems include CAKI-1; HT-29; U-251; HL-60; A549; ACHN; BT-549; NCI-H226; TK-10; SK-OV-3; NCI-H522; K562; M14; SF-268; SK-MEL-5; T47D; OVCAR-4; MOLT-4; OVCAR-5; MDA-MB-231.
Experiment in all cases: NCI tumour cell line growth inhibition, 48 h

The results in this text go back to ChEMBL document CHEMBL1201862, “PubChem BioAssay data set” (2004).

Molecules are shown by their SMILES.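 Cultured in 96-well plates, cells were exposed to test compound for 48 hours across five concentrations. The concentration for 50% growth inhibition is given as GI50.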 Activity calls are given as the source filed them. Rule as the data show it: active = GI50 up to about 1.1 µM and inactive = higher. A value given as a limit tells only on which side of the number the result lay.

For `OCC1CCCCCCCCCCC12SCCCS2` (stereo not drawn), the GI50 with CAKI-1, with HT-29, in the assay on U-251, in the assay with HL-60, in the assay on A549 and with ACHN was > 100 µM (inactive) throughout. Besides, the GI50 in the assay with BT-549 is > 100 µM (inactive); in the assay on NCI-H226, > 100 µM (inactive); with TK-10, > 100 µM (inactive); with SK-OV-3, > 100 µM (inactive); in the assay on NCI-H522, > 100 µM (inactive); in the assay on K562, 48.2 µM (inactive). In addition, the GI50 in the assay with M14 was > 100 µM (inactive); with SF-268, > 100 µM (inactive); in the assay on SK-MEL-5, > 100 µM (inactive); in the assay on T47D, 84.3 µM (inactive); in the assay with OVCAR-4, > 100 µM (inactive); in the assay with MOLT-4 it was > 100 µM (inactive). Further, in the assay on OVCAR-5, the GI50 is > 100 µM (inactive).
Consider `C#CC(O)/C=C/C(O)CCCC(O)CC#CC(O)C#CCCCCC(O)/C=C/CCCCCC(=O)CCCCCCCCCCCCCC(O)C(O)C#CC(=O)O` (stereo not drawn), for which the GI50 in the assay on CAKI-1, with HT-29, in the assay with U-251, in the assay on HL-60, in the assay on A549 and in the assay on ACHN was > 25 µM (inactive) each time. For the same molecule, the GI50 in the assay with NCI-H226 is > 25 µM (inactive); in the assay with TK-10, > 25 µM (inactive); in the assay with SK-OV-3, > 25 µM (inactive); with NCI-H522, 4.88 µM (inactive); in the assay on K562, > 25 µM (inactive); in the assay with M14, > 25 µM (inactive). Moreover, the GI50 is > 25 µM (inactive) in the assay on MDA-MB-231; > 25 µM (inactive) in the assay on SF-268; > 25 µM (inactive) with SK-MEL-5; > 25 µM (inactive) in the assay with T47D; 15.8 µM (inactive) with OVCAR-4; 12.8 µM (inactive) in the assay on MOLT-4. Further, the GI50 with OVCAR-5 is > 25 µM (inactive).
As to `COc1ccc(N2C(=O)C(=O)C3(CCCCC3)C2=O)c(OC)c1OC`, the GI50 with CAKI-1, with HT-29, in the assay with U-251, in the assay with HL-60, in the assay on A549 and with ACHN was > 100 µM (inactive) in each case. In addition, the GI50 is 34 µM (inactive) in the assay on BT-549; > 100 µM (inactive) with NCI-H226; > 100 µM (inactive) with TK-10; > 100 µM (inactive) in the assay on SK-OV-3; > 100 µM (inactive) in the assay on NCI-H522; > 100 µM (inactive) with M14. For the same molecule, the GI50 in the assay with SF-268, in the assay on SK-MEL-5, in the assay with T47D, in the assay on OVCAR-4, in the assay with MOLT-4 and with OVCAR-5 was > 100 µM (inactive) in each case.
As for `CC1(C)CC(=O)c2c(nc(SSc3nc4c(c(-c5ccc(Br)cc5)c3C#N)C(=O)CC(C)(C)C4)c(C#N)c2-c2ccc(Br)cc2)C1`, the GI50 in the assay on CAKI-1, in the assay on HT-29, with U-251, in the assay with HL-60, in the assay with A549 and with ACHN was > 10 µM (inactive) in each case. Moreover, the GI50 in the assay on BT-549, in the assay with NCI-H226, with TK-10, in the assay with SK-OV-3, in the assay on NCI-H522 and with K562 was > 10 µM (inactive) in each case. Also, the GI50 in the assay on M14, in the assay with SF-268, with SK-MEL-5, in the assay on T47D, with OVCAR-4 and in the assay on MOLT-4 was > 10 µM (inactive) throughout. Besides, the GI50 in the assay on OVCAR-5 is > 10 µM (inactive).
`Cc1oc2ccccc2c(=O)c1Cn1nnc2ccccc21`: the GI50 is 91.8 µM (inactive) in the assay with HT-29; > 100 µM (inactive) in the assay with U-251; 48.5 µM (inactive) in the assay with HL-60; 70.8 µM (inactive) in the assay with A549; 41.6 µM (inactive) in the assay with ACHN; 53.1 µM (inactive) in the assay with NCI-H226. Moreover, the GI50 in the assay on TK-10 is > 100 µM (inactive); in the assay with SK-OV-3 it was > 100 µM (inactive); in the assay on K562, 56.6 µM (inactive); in the assay with M14, 80.7 µM (inactive); in the assay with MDA-MB-231, 91.4 µM (inactive); with SF-268, 34.3 µM (inactive). Also, the GI50 is 20.5 µM (inactive) with SK-MEL-5; 10.6 µM (inactive) with T47D; 53.3 µM (inactive) in the assay with OVCAR-4; 37.2 µM (inactive) with MOLT-4; > 100 µM (inactive) with OVCAR-5.
For `CC(=O)Nc1ccc2nc(-c3cccc(Cl)c3)cc(O)c2c1`, the GI50 in the assay with HT-29 was 11.2 µM (inactive); in the assay with U-251, 3.65 µM (inactive); in the assay on HL-60, 8.34 µM (inactive); in the assay on A549 it was 54.7 µM (inactive); with ACHN, 64.6 µM (inactive); with BT-549, 15.4 µM (inactive). The GI50 in the assay on TK-10 was > 100 µM (inactive); in the assay on SK-OV-3, 0.787 µM (active); with NCI-H522 it was 3.1 µM (inactive); in the assay with M14, 11.1 µM (inactive); with MDA-MB-231, 0.863 µM (active); with SK-MEL-5 it was 4.93 µM (inactive). Also, the GI50 was 5.35 µM (inactive) with MOLT-4 and 68.4 µM (inactive) in the assay with OVCAR-5.
On to `CS(=O)(=O)N1CC(CI)c2ccc(O)cc21` (stereo not drawn), for which the GI50 is 1.96 µM (inactive) in the assay on CAKI-1; 3.4 µM (inactive) with HT-29; 2.49 µM (inactive) in the assay on U-251; 1.79 µM (inactive) in the assay with HL-60; 3.56 µM (inactive) in the assay on A549; 2.67 µM (inactive) in the assay on ACHN. In addition, the GI50 was 3.68 µM (inactive) in the assay with BT-549; 3.5 µM (inactive) in the assay with NCI-H226; 2.28 µM (inactive) in the assay on TK-10; 1.15 µM (inactive) in the assay with NCI-H522; 2.66 µM (inactive) in the assay with K562; 2.84 µM (inactive) in the assay with MDA-MB-231. Also, the GI50 in the assay on SF-268 is 1.32 µM (inactive); in the assay on SK-MEL-5, 1.43 µM (inactive); in the assay with OVCAR-4, 1.96 µM (inactive); in the assay with MOLT-4 it was 0.809 µM (active); in the assay on OVCAR-5 it was 2.29 µM (inactive).
Take `CCOC(=O)c1nc2ccc(C(F)(F)F)cc2nc1Oc1ccc(OC)cc1`: the GI50 in the assay with CAKI-1 was 9.42 µM (inactive); with HT-29, > 100 µM (inactive); in the assay on U-251 it was > 100 µM (inactive); in the assay on A549, > 100 µM (inactive); in the assay on ACHN, > 100 µM (inactive); in the assay on BT-549, > 100 µM (inactive). The GI50 in the assay with NCI-H226, in the assay with TK-10, in the assay with SK-OV-3, in the assay on K562, in the assay on M14 and with MDA-MB-231 was > 100 µM (inactive) each time. For the same molecule, the GI50 in the assay with SF-268, with SK-MEL-5, with T47D, in the assay with OVCAR-4, in the assay on MOLT-4 and in the assay with OVCAR-5 was > 100 µM (inactive) each time.
For `CNC(=O)N1CN(c2ccccc2)C2(CCN(CCCC3(c4ccc(F)cc4)OCCO3)CC2)C1=O`, the GI50 in the assay with CAKI-1, in the assay on HT-29, with U-251, in the assay on HL-60, with A549 and in the assay on ACHN was > 100 µM (inactive) throughout. In addition, the GI50 with NCI-H226, with TK-10, in the assay with SK-OV-3, in the assay with NCI-H522, in the assay with K562 and in the assay with M14 was > 100 µM (inactive) in each case. For the same molecule, the GI50 in the assay with MDA-MB-231, in the assay with SF-268, with SK-MEL-5, in the assay on T47D, in the assay with OVCAR-4 and with MOLT-4 was > 100 µM (inactive) in each case. Further, in the assay with OVCAR-5, the GI50 is > 100 µM (inactive).
Take `Nc1cc(N2CCCC2)nc(=O)n1Cc1ccccc1`: the GI50 with CAKI-1, in the assay on HT-29, in the assay on U-251, in the assay with HL-60, with A549 and with ACHN was > 100 µM (inactive) throughout. The GI50 in the assay on BT-549, in the assay on NCI-H226, in the assay with TK-10, with NCI-H522, in the assay with K562 and with M14 was > 100 µM (inactive) each time. Further, the GI50 in the assay with MDA-MB-231 was > 100 µM (inactive); with SF-268, 39.5 µM (inactive); in the assay on SK-MEL-5, > 100 µM (inactive); in the assay on OVCAR-4, > 100 µM (inactive); in the assay with MOLT-4, > 100 µM (inactive); in the assay with OVCAR-5 it was > 100 µM (inactive).
On to `COC1=CC(=O)N(C(=O)C2CSC(C(CO)NC(=O)c3csc(/C=N/O)n3)=N2)C1` (stereo not drawn), for which the GI50 with CAKI-1 is > 100 µM (inactive); in the assay on HT-29 it was > 100 µM (inactive); with HL-60 it was > 100 µM (inactive); in the assay on ACHN, > 100 µM (inactive); with BT-549, > 100 µM (inactive); in the assay on NCI-H226, 36.6 µM (inactive). In addition, the GI50 in the assay on TK-10, in the assay with SK-OV-3, with K562, with M14, in the assay on MDA-MB-231 and in the assay with SF-268 was > 100 µM (inactive) each time. For the same molecule, the GI50 in the assay on SK-MEL-5, in the assay with MOLT-4 and with OVCAR-5 was > 100 µM (inactive) in each case.
